We go through 10 molecules from publication PMC11280411, “Phytochemical Investigation of Carex praecox Schreb. and ACE-Inhibitory Activity of Oligomer Stilbenes of the Plant” (Molecules, 2024).

For one data set, the system named is Colo 205. Nature of the data set: Antiproliferative MTT assay. The settings on record: doxorubicin-sensitive cells; for IC50: read-out: IC50 (μM) ± SD, Colo 205. It is filed as cell-based, human.
Data set [1] has as its system Colo 320/MDR-LRP expressing ABCB1. Nature of the data set: Antiproliferative MTT assay. The conditions noted are these: for IC50: Homo sapiens, COLO 320, 72 h, read-out: IC50 (μM) ± SD, Colo 320.
For data set [2], the target named is T1, N-domain of rabbit lung ACE (Oryctolagus cuniculus, UniProt P12822).
T1 construct: on the C- and N-domain of a rabbit lung ACE using the FRET substrates; from tissue; host or cells: rabbit lung
T1 sequence (P12822 34-1310): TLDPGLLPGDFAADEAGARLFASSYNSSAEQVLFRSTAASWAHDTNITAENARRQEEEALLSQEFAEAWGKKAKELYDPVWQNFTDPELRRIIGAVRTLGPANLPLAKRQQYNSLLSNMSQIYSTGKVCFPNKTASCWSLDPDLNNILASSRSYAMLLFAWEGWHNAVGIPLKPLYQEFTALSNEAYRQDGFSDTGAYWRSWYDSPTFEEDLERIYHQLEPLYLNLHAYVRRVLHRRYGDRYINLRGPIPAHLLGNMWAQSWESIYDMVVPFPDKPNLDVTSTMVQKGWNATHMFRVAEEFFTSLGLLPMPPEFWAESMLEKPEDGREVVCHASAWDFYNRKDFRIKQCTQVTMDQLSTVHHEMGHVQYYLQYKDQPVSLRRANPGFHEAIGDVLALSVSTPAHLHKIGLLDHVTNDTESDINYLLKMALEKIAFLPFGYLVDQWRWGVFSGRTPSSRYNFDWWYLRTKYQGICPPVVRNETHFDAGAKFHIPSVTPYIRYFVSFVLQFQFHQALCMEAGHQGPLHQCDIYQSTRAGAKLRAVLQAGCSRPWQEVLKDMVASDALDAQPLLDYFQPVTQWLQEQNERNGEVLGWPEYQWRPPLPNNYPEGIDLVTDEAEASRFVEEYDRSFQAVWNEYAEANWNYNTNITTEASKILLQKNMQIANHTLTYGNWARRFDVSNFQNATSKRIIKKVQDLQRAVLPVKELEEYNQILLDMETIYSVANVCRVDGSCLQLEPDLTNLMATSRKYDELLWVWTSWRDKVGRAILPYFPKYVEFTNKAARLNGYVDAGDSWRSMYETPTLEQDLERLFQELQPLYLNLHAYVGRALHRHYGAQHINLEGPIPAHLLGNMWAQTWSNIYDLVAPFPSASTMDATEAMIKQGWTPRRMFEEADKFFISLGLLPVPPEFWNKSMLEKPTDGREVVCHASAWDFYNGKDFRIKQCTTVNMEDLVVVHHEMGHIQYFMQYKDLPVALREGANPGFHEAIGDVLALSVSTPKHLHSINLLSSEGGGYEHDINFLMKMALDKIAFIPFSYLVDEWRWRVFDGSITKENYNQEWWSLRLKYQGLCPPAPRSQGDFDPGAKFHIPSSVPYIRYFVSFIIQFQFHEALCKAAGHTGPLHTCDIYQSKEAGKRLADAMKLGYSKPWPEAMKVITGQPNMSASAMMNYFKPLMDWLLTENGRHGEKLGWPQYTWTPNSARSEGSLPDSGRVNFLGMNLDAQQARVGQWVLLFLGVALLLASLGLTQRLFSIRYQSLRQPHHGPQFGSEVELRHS
In words: ACE domain-specific inhibition, N-domain (FRET substrate Abz-SDK(Dnp)P-OH). The class given is biochemical. The settings on record: for Inhibition (%) ± SD, N-Domain: Abz-SDK(Dnp)P-OH [S] = 72 μM. The procedure:
(§1) ACE domain-specific inhibition studies were performed based on previously reported methods (Carmona et al., 2006 [57]; Lunow et al., 2015 [58]). Fluorescence resonance energy transfer (FRET) substrates, Abz-SDK(Dnp)P-OH and Abz-LFK(Dnp)-OH were used for the N-domain and C-domain, respectively. […] Briefly, 40 μL of assay buffer and 60 μL of the FRET substrate solutions were preincubated for 10 min at 37 °C, with the reaction started by adding 20 μL of diluted ACE solution (5 μL ACE + 15 μL 0.1 mol/L TRIS buffer) and fluorescence measured at λex/λem = 290/450 nm every minute at 37 °C for 30 min. The corresponding KM of the FRET substrates, determined using the Michaelis–Menten equation, was used as the substrate concentration of the FRET substrates used in percent inhibition studies. The inhibitory activity of 16 on both domains was determined as described above with the 40 μL solution containing the inhibitor (inhibitor in DMSO–Assay buffer, 1:9). The control samples, which correspond to 100% enzyme activity, were prepared by replacing the inhibitor solution with TRIS buffer. Dose–effect studies on 16 using the FRET substrates were used to determine the IC50 of this compound on both ACE domains. All experiments were performed in triplicates. The ACE-inhibitory activity was calculated using the following equation:(%) = (Ab − Aa) − (Cb − Ca)/(Ab − Aa) × 100(2) where Aa is the absorbance of control wells at 0 min; Ab is the absorbance of control wells at 15 min; Ca is the absorbance of the inhibitor wells at 0 min; and Cb is the absorbance of inhibitor wells at 15 min.

The test system of the next data set is HIV transcription. Details: method as in PMID 36975214. The settings on record: T cells; cited from earlier work.
For a further data set, the target named is T2, ACE from rabbit lung (Oryctolagus cuniculus, UniProt P12822).
T2 construct: ACE from rabbit lung, A6778, Sigma-Aldrich, USA; purchased Sigma-Aldrich A6778; host or cells: rabbit lung (tissue-derived)
T2 sequence (P12822 34-1310): T1 sequence (P12822 34-1310)
Nature of the data set: ACE-inhibitory assay (ACE Activity Assay Kit, fluorescence). It is filed as biochemical. The settings on record: for inhibition at 90 µM: read-out: Inhibition at 90 μM (%) ± SD.

The target of data set [3] is T3, C-domain of rabbit lung ACE (Oryctolagus cuniculus, UniProt P12822).
T3 construct: on the C- and N-domain of a rabbit lung ACE using the FRET substrates; from tissue; host or cells: rabbit lung
T3 sequence (P12822 34-1310): T1 sequence (P12822 34-1310)
In words: ACE domain-specific inhibition, C-domain (FRET substrate Abz-LFK(Dnp)-OH). The class given is biochemical. The settings on record: for Inhibition (%) ± SD, C-Domain: Abz-LFK(Dnp)-OH [S] = 21 μM. The procedure: as §1

Data set [4] deals with Colo 320/MDR-LRP expressing ABCB1.
The test system of another data set is velvetleaf seeds. Set-up: method as in doi:10.1007/BF02266955. The conditions noted are these: cited from earlier work.

Where two headings read alike, the source gives them in different places.

`Oc1ccc(C2Oc3cc(O)cc4c3C2c2cc(O)cc(O)c2C(c2ccc(O)cc2)C4C2c3cc(O)cc4c3C(c3cc(O)cc(O)c3C2c2ccc(O)cc2)C(c2ccc(O)cc2)O4)cc1` (single isomer, unassigned; (-)) [Compound 16, (–)-hopeaphenol]: in the data set on Colo 205 (72 h), the “IC50 (μM) ± SD, Colo 205” value is “notable antiproliferative activity”. For the same molecule, the IC50 in the data set on Colo 205 (Homo sapiens, COLO 205, 72 h) was 1.59 ± 0.11 µM; in data set [1], 6.08 ± 0.24 µM; in data set [2] (rabbit lung ACE, FRET substrate Abz-SDK(Dnp)P-OH), 35.7 ± 2.3 µM; against ACE from rabbit lung (ACE from rabbit lung) it was 7.7 ± 0.9 µM; in data set [3] (rabbit lung ACE, FRET substrate Abz-LFK(Dnp)-OH) it was more than 300 µM. Besides, in data set [1] (MTT, 72 h, doxorubicin-resistant cells expressing ABCB1), the “IC50 (μM) ± SD, Colo 320” value was “notable antiproliferative activity”. In addition, the results for the “Inhibition (%) ± SD, N-Domain” value in data set [2] (inhibitor 10 μM) and in data set [2] (inhibitor 50 μM) were 42.41 ± 0.8% and 55.74 ± 3.2%, respectively. Moreover, in the data set on HIV transcription, the “inhibition of HIV transcription” value is “selective inhibitor of HIV transcription”. Further, the inhibition at 90 µM at ACE from rabbit lung (ACE from rabbit lung, 90 μM) came out at 103 ± 1.5%. The “type of ACE inhibition (enzyme-kinetic studies)” value on ACE from rabbit lung (Lineweaver-Burk, substrate Abz-Gly-Phe(NO2)-Pro) is “mixed-type inhibition”. In data set [3] (C-domain versus N-domain IC50), the “times lower affinity for the C-domain than for the N-domain” value worked out at 10 times. The “Inhibition (%) ± SD, C-Domain” value in data set [3] (inhibitor 10 μM) was 18.17 ± 0.5%; in data set [3] (inhibitor 50 μM), 23.39 ± 0.6%.
For the molecule `N.N.[Cl][Pt][Cl]` [Cisplatin, reference compound], the IC50 with Colo 205 (72 h) amounted to 53.9 ± 3.92 µM.
On to `Oc1ccc(/C=C/c2cc(O)cc(O)c2)cc1` [Compound 12, trans-resveratrol], for which the “IC50 (μM) ± SD, Colo 205” value in the data set with Colo 205 (72 h) is on record as “notable antiproliferative activity”. Besides, the IC50 in the data set with Colo 205 (Homo sapiens, COLO 205, 72 h) was 48.3 ± 1.54 µM; in data set [1], 40.4 ± 1.84 µM. For the same molecule, the “IC50 (μM) ± SD, Colo 320” value in data set [4] was “notable antiproliferative activity”.
Turning to `Oc1ccc(/C=C\c2cc(O)cc3c2C(c2cc(O)cc(O)c2)C(c2ccc(O)cc2)O3)cc1` (stereo not drawn) [Compound 13, cis-ε-viniferin], the IC50 in the data set on Colo 205 (Homo sapiens, COLO 205, 72 h) is more than 100 µM; in data set [1], more than 100 µM; against ACE from rabbit lung (ACE from rabbit lung), 18 ± 1.2 µM. The inhibition at 90 µM on ACE from rabbit lung was determined as 95.5 ± 2.8%.
Turning to `Oc1ccc(/C=C/c2cc(O)cc3c2C(c2cc(O)cc(O)c2)C(c2ccc(O)cc2)O3)cc1` (stereo not drawn) [Compound 14, trans-ε-viniferin], the IC50 with Colo 205 (Homo sapiens, COLO 205, 72 h) was more than 100 µM; in data set [1], more than 100 µM; on ACE from rabbit lung (ACE from rabbit lung), 14 ± 0.7 µM. For the same molecule, the inhibition at 90 µM on ACE from rabbit lung is 107 ± 1.1%.
Take `Oc1ccc(/C=C\c2cc(O)cc3c2[C@H](c2cc(O)cc4c2[C@H](c2cc(O)cc(O)c2)[C@@H](c2ccc(O)cc2)O4)[C@@H](c2ccc(O)cc2)O3)cc1` [Compound 15, Z-miyabenol C]: the IC50 in the data set on Colo 205 (Homo sapiens, COLO 205, 72 h) is more than 100 µM; in data set [1], more than 100 µM; against ACE from rabbit lung (ACE from rabbit lung), 15.2 ± 0.4 µM. The inhibition at 90 µM on ACE from rabbit lung (ACE from rabbit lung, 90 μM) amounted to 96.7 ± 6.3%.
On to `O=c1ccoc2cc(O)cc(O)c12` [Compound 22, 5,7-dihydroxychromone], for which the inhibition of germination result in the data set on velvetleaf seeds was “inhibited the germination of velvetleaf seeds”.
Consider `COc1cccc2c1C(=O)c1c(O)c3c(c(O)c1C2=O)C[C@@](O)(C(=O)CO)C[C@@H]3O[C@H]1C[C@H](N)[C@H](O)[C@H](C)O1` [Doxorubicin, reference compound], for which the IC50 in the data set on Colo 205 (Homo sapiens, COLO 205, 72 h) worked out at 0.33 ± 0.03 µM; in data set [1], 0.67 ± 0.06 µM.
With “bradykinin-potentiating peptide b [BPPb, reference compound]”, the “Inhibition (%) ± SD, N-Domain” value in data set [2] (inhibitor 200 nM) amounted to 5.2 ± 0.2%. For the same molecule, the “Inhibition (%) ± SD, C-Domain” value in data set [3] (inhibitor 200 nM) came to 83.20 ± 3.6%.
As for kobophenol A [Compound 17], the IC50 in the data set with Colo 205 (72 h) was more than 100 µM; in data set [4] it was more than 100 µM; against ACE from rabbit lung (ACE from rabbit lung), 14.8 ± 0.8 µM. For the same molecule, the “Inhibition at 90 μM (%) ± SD” value on ACE from rabbit lung (ACE from rabbit lung, 90 μM) turned out to be 98.5 ± 1.2%.
